Test results from US8716284B2, “Adamantyl diamide derivatives and uses of same” (H. Lundbeck A/S, priority 2008, dated 2014).

Target: T1, rat metabotropic glutamate receptor 5 (mGluR5) (Rattus norvegicus, UniProt P31424)
T1 construct: expressed in transfected cells; host or cells: HEK 293
Assay: Calcium mobilization assay (FLIPR) for negative or positive allosteric activity, HEK 293 cells
Assay type: cell-based
Conditions: HEK293, negative allosteric modulation, inhibition of EC80 glutamate response; read-out: FLIPR maximum inhibition
Procedure: The cDNA for rat metabotropic glutamate receptor 5 (mGluR5) was a generous gift from S. Nakanishi (Kyoto University, Kyoto, Japan). The mGluR5 was stably expressed in a HEK 293 cell line and grown in Dulbecco's Modified Eagle Medium (DMEM) (Invitrogen, Carlsbad, Calif.) with supplements (10% bovine calf serum, 4 mM glutamine, 100 units/mL penicillin, 100 μg/mL streptomycin and 0.75 mM G1418) at 37° C., 5% CO2. Twenty-four hours prior to assay, cells were seeded into 384-well black wall microtiter plates coated with poly-D-lysine. Just prior to assay, media was aspirated and cells dye-loaded (25 μL/well) with 3 μM Fluo-4/0.01% pluronic acid in assay buffer (Hank's Balanced Saline Solution (HBSS)): 150 mM NaCl, 5 mM KCl, 1 mM CaCl2, 1 mM MgCl2, plus 20 mM N-2-Hydroxyethylpiperazine-N′-2-ethanesulfonic acid (HEPES), pH 7.4, 0.1% bovine serum albumin (BSA) and 2.5 mM probenicid) for 1 hour in 5% CO2 at 37° C. After excess dye was discarded, cells were washed in assay buffer and layered with a final volume equal to 30 μL/well. Basal fluorescence is monitored in a fluorometric imaging plate reader (FLIPR) (Molecular Devices, Sunnyvale, Calif.) with an excitation wavelength of 488 nm and an emission range of 500 to 560 nm. Laser excitation energy was adjusted so that basal fluorescence readings were approximately 10,000 relative fluorescent units. Cells were stimulated with an EC20 or an EC80 concentration of glutamate in the presence of a compound to be tested, both diluted in assay buffer, and relative fluorescent units were measured at defined intervals (exposure=0.6 sec) over a 3 min period at room temperature. Basal readings derived from negative controls were subtracted from all samples. Maximum change in fluorescence was calculated for each well. Concentration-response curves derived from the maximum change in fluorescence were analyzed by nonlinear regression (Hill equation). A negative modulator can be identified from these concentration-response curves if a compound produces a concentration dependent inhibition of the EC80 glutamate response. […] Examples 11-163 also were tested in the above assay.
A positive modulator can be identified from these concentration-response curves if a compound produces a concentration dependent increase in the EC20 glutamate response.

T1 sequence (P31424 21-1171 isoform P31424-2 limits assumed): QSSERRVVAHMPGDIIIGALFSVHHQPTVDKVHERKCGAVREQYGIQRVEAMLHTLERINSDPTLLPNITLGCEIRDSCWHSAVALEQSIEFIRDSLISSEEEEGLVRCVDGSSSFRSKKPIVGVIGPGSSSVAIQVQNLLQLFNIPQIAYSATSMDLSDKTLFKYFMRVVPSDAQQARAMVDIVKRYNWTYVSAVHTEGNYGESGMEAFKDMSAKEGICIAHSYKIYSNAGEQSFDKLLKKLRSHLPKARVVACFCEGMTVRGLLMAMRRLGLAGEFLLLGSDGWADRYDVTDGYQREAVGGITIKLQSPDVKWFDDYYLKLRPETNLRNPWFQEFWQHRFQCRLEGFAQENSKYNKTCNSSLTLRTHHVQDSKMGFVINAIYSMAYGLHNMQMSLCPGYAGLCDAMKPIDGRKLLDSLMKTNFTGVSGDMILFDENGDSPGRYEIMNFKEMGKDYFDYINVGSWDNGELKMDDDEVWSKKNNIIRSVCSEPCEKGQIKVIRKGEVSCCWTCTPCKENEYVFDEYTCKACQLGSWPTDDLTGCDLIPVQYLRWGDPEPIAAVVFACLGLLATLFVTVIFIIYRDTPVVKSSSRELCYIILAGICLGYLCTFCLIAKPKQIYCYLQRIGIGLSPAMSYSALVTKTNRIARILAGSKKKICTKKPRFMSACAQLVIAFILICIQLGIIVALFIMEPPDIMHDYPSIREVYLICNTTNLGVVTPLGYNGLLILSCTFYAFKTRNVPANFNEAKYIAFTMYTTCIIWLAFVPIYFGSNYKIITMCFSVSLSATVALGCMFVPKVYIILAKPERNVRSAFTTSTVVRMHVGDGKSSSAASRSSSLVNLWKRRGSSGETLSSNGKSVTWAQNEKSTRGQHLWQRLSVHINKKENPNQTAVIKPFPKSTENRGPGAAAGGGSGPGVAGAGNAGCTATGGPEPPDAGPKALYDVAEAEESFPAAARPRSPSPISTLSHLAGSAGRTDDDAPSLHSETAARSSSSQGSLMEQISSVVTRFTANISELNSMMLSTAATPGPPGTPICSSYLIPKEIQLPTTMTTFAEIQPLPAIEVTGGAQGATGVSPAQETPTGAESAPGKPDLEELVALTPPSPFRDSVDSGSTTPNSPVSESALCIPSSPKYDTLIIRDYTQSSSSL

Row | SMILES | Emax
1 | O=C(NC12CC3CC(C1)CC(NC(=O)c1cccc(N4CCC[C@@H]4CO)n1)(C3)C2)c1ccccn1 [Example 229, 6-((R)-2-Hydroxymethyl-pyrrolidin-1-yl)-pyridine-2-carboxylic acid {3-[(pyridine-2-carbonyl)-amino]-adamantan-1-yl}-amide] | 63 to 99%
2 | COCCN(C)c1cccc(C(=O)NC23CC4CC(CC(NC(=O)c5cccc(F)c5)(C4)C2)C3)n1 [Example 246, 6-[(2-Methoxy-ethyl)-methyl-amino]-pyridine-2-carboxylic acid [3-(3-fluoro-benzoylamino)-adamantan-1-yl]-amide] | 63 to 99%
3 | CN(C)CCNc1cccc(C(=O)NC23CC4CC(CC(NC(=O)c5ccccn5)(C4)C2)C3)n1 [Example 222, 6-(2-Dimethylamino-ethylamino)-pyridine-2-carboxylic acid {3-[(pyridine-2-carbonyl)-amino]-adamantan-1-yl}-amide] | 63 to 99%
4 | Cc1cccc(C(=O)NC23CC4CC(CC(NC(=O)c5cccc(C#N)c5)(C4)C2)C3)n1 [Example 32, 6-Methyl-pyridine-2-carboxylic acid [3-(3-cyano-benzoylamino)-adamantan-1-yl]-amide] | 63 to 99%
5 | Cc1cccc(C(=O)NC23CC4CC(CC(NC(=O)c5cccnn5)(C4)C2)C3)n1 [Example 24, Pyridazine-3-carboxylic acid {3-[(6-methyl-pyridine-2-carbonyl)-amino]-adamantan-1-yl}-amide] | 63 to 99%
6 | Cc1cccc(C(=O)NC23CC4CC(C2)CC(NC(=O)c2cccc(N5CCC[C@H]5C(N)=O)n2)(C4)C3)n1 [Example 239, 6-((S)-2-Carbamoyl-pyrrolidin-1-yl)-pyridine-2-carboxylic acid {3-[(6-methyl-pyridine-2-carbonyl)-amino]-adamantan-1-yl}-amide] | 63 to 99%
7 | Cc1cccc(C(=O)NC23CC4CC(C2)CC(NC(=O)c2cccc(Cl)n2)(C4)C3)n1 [Example 57, 6-Chloro-pyridine-2-carboxylic acid {3-[(6-methyl-pyridine-2-carbonyl)-amino]-adamantan-1-yl}-amide] | 63 to 99%
8 | Cc1cccc(C(=O)NC23CC4CC(C2)CC(NC(=O)c2cccc(NCCO)n2)(C4)C3)n1 [Example 208, 6-(2-Hydroxy-ethylamino)-pyridine-2-carboxylic acid {3-[(6-methyl-pyridine-2-carbonyl)-amino]-adamantan-1-yl}-amide] | 63 to 99%
9 | Cc1cccc(C(=O)NC23CC4CC(C2)CC(NC(=O)C2CC(F)(F)C2)(C4)C3)n1 [Example 47, 6-Methyl-pyridine-2-carboxylic acid {3-[(3,3-difluoro-cyclobutanecarbonyl)-amino]-adamantan-1-yl}-amide] | 63 to 99%
10 | Cc1ccnc(C(=O)NC23CC4CC(CC(NC(=O)c5cccc(F)c5)(C4)C2)C3)n1 [Example 182, 4-Methyl-pyrimidine-2-carboxylic acid [3-(3-fluoro-benzoylamino)-adamantan-1-yl]-amide] | 63 to 99%
11 | CC(=O)NCCNc1cccc(C(=O)NC23CC4CC(CC(NC(=O)c5ccccn5)(C4)C2)C3)n1 [Example 223, 6-(2-Acetylamino-ethylamino)-pyridine-2-carboxylic acid {3-[(pyridine-2-carbonyl)-amino]-adamantan-1-yl}-amide] | 63 to 99%
12 | Cc1nc(C(=O)NC23CC4CC(CC(NC(=O)c5cnccn5)(C4)C2)C3)cs1 [Example 187, Pyrazine-2-carboxylic acid {3-[(2-methyl-thiazole-4-carbonyl)-amino]-adamantan-1-yl}-amide] | 63 to 99%
13 | O=C(NC12CC3CC(C1)CC(NC(=O)c1cccc(N4CCC[C@@H]4CO)n1)(C3)C2)c1cccc(F)c1 [Example 250, 6-((R)-2-Hydroxymethyl-pyrrolidin-1-yl)-pyridine-2-carboxylic acid [3-(3-fluoro-benzoylamino)-adamantan-1-yl]-amide] | 63 to 99%
14 | Cc1nccc(C(=O)NC23CC4CC(CC(NC(=O)c5ccc(F)cn5)(C4)C2)C3)n1 [Example 191, 2-Methyl-pyrimidine-4-carboxylic acid {3-[(5-fluoro-pyridine-2-carbonyl)-amino]-adamantan-1-yl}-amide] | 63 to 99%
15 | O=C(NC12CC3CC(C1)CC(NC(=O)c1cnc4ccccc4n1)(C3)C2)c1cnc2ccccc2n1 [Example 13, N,N′-(1,3-adamantylene)bis(quinoxaline-2-carboxamide)] | 63 to 99%
16 | Cc1nccc(C(=O)NC23CC4CC(C2)CC(NC(=O)c2nccc(C(F)(F)F)n2)(C4)C3)n1 [Example 192, 4-Trifluoromethyl-pyrimidine-2-carboxylic acid {3-[(2-methyl-pyrimidine-4-carbonyl)-amino]-adamantan-1-yl}-amide] | 63 to 99%
17 | Cc1cccc(C(=O)NC23CC4CC(C2)CC(NC(=O)c2cnc5ccccc5n2)(C4)C3)n1 [Example 34, Quinoxaline-2-carboxylic acid {3-[(6-methyl-pyridine-2-carbonyl)-amino]-adamantan-1-yl}-amide] | 63 to 99%
18 | O=C(NC12CC3CC(C1)CC(NC(=O)c1cccc(-n4ccnc4)n1)(C3)C2)c1cccc(F)c1 [Example 255, 6-Imidazol-1-yl-pyridine-2-carboxylic acid [3-(3-fluoro-benzoylamino)-adamantan-1-yl]-amide] | 63 to 99%
19 | O=C(NC12CC3CC(C1)CC(NC(=O)c1cn4cc(Cl)ccc4n1)(C3)C2)c1ccccn1 [Example 86, 6-Chloro-imidazo[1,2-a]pyridine-2-carboxylic acid {3-[(pyridine-2-carbonyl)-amino]-adamantan-1-yl}-amide] | 63 to 99%
20 | CN(C)CCN(C)c1cccc(C(=O)NC23CC4CC(CC(NC(=O)c5cccc(F)c5)(C4)C2)C3)n1 [Example 248, 6-[(2-Dimethylamino-ethyl)-methyl-amino]-pyridine-2-carboxylic acid [3-(3-fluoro-benzoylamino)-adamantan-1-yl]-amide] | 63 to 99%
21 | Cc1cccc(C(=O)NC23CC4CC(C2)CC(NC(=O)c2ccc5cnccc5n2)(C4)C3)n1 [Example 123, [1,6]Naphthyridine-2-carboxylic acid {3-[(6-methyl-pyridine-2-carbonyl)-amino]-adamantan-1-yl}-amide] | 70 to 99%
22 | Cc1nc(C(=O)NC23CC4CC(CC(NC(=O)c5ccccn5)(C4)C2)C3)cs1 [Example 110, Pyridine-2-carboxylic acid {3-[(2-methyl-thiazole-4-carbonyl)-amino]-adamantan-1-yl)-amide] | 70 to 99%
23 | Cc1cccc(C(=O)NC23CC4CC(CC(NC(=O)c5cccc(CCl)c5)(C4)C2)C3)n1 [Example 45, 6-Methyl-pyridine-2-carboxylic acid [3-(3-chloromethyl-benzoylamino)-adamantan-1-yl]-amide] | 63 to 99%
24 | COc1cc(C(=O)NC23CC4CC(C2)CC(NC(=O)c2cncc(C)n2)(C4)C3)ccn1 [Example 154, 6-Methyl-pyrazine-2-carboxylic acid {3-[(2-methoxy-pyridine-4-carbonyl)-amino]-adamantan-1-yl}-amide] | 70 to 99%
25 | Cc1cccc(C(=O)NC23CC4CC(C2)CC(NC(=O)c2cccc(N(C)CCO)n2)(C4)C3)n1 [Example 209, 6-[(2-Hydroxy-ethyl)-methyl-amino]-pyridine-2-carboxylic acid {3-[(6-methyl-pyridine-2-carbonyl)-amino]-adamantan-1-yl}-amide] | 63 to 99%
26 | Cc1cccc(C(=O)NC23CC4CC(C2)CC(NC(=O)c2cccc(C(C)(C)O)n2)(C4)C3)n1 [Example 144, 6-Methyl-pyridine-2-carboxylic acid (3-{[6-(1-hydroxy-1-methyl-ethyl)-pyridine-2-carbonyl]-amino}-adamantan-1-yl)-amide] | 70 to 99%
27 | O=C(NC12CC3CC(C1)CC(NC(=O)c1cccc(N4CCC[C@H]4CO)n1)(C3)C2)c1ccccn1 [Example 228, 6-((S)-2-Hydroxymethyl-pyrrolidin-1-yl)-pyridine-2-carboxylic acid {3-[(pyridine-2-carbonyl)-amino]-adamantan-1-yl}-amide] | 63 to 99%
28 | O=C(NC12CC3CC(C1)CC(NC(=O)c1cccs1)(C3)C2)c1ccccn1 [Example 75, Pyridine-2-carboxylic acid {3-[(thiophene-2-carbonyl)-amino]-adamantan-1-yl}-amide] | 63 to 99%
29 | Cc1cncc(C(=O)NC23CC4CC(C2)CC(NC(=O)c2cccc(Cl)c2F)(C4)C3)n1 [Example 152, 6-Methyl-pyrazine-2-carboxylic acid [3-(3-chloro-2-fluoro-benzoylamino)-adamantan-1-yl]-amide] | 70 to 99%
